Consider one compound from US20160303137A1, “DUAL PI3K AND WNT PATHWAY INHIBITION AS A TREATMENT FOR CANCER” (Indiana University Research and Technology Corporation, priority 2015, published 2016).

Where two headings read alike, the source gives them in different places.

In general, AUC(0-inf) refers to total exposure, with the tail of the curve extrapolated. By Cmax is commonly meant the peak of the concentration-time curve. Usually Tmax stands for the time at which the peak concentration occurs. Usually half-life stands for the time in which the quantity being followed falls by half.

One data set concerns Porcupine (PORCN). The data set is described as follows: Western blot of Porcupine in TNBC cell lines. The class given is cell-based. The settings on record: MDA-MB-231, HCC70, HCC1143; 1 μM or 10 μM; 72 hours. The procedure: (§1) For Western Blot analysis, target modulation was assessed using qPCR for Axin2 (a marker of WNT974), and western blot for Porcupine and Phospho-Akt […] (a marker of Buparlisib activity). qPCR was performed using Taqman assays (Life Technologies). For western blotting, protein was isolated using RIPA buffer and quantified with BCA assay (Thermo Fisher). Protein was run on Bis-Tris gels (Life Technologies) and transferred to PVDF. Primary pAKT-[…] antibody (Cell Signaling Technology, Beverly, Mass.), β-actin (Cell Signaling Technology), and PORCN (Abcam, Cambridge, England) were incubated overnight with subsequent 1 hour incubation with HRP-conjugate secondary antibody. Staining was performed using a chemiluminescent substrate (ThermoFisher). Imaging was performed using an LAS-4000 Luminescent Image Analyzer (Fujifilm, Tokyo, Japan). Three TNBC cell lines: MDA-MB-231, HCC70, and HCC1143 were treated with either 0, 1 μM or 10 μM Buparlisib. After 72 hours, protein was isolated and PORCN and pAKT expression was observed.
In general terms: Immunoblotting shows a protein as a band on a membrane.

Data set [1] can be described thus: In vivo single-dose PK, plasma HPLC-MS/MS. The arrangement: species or system NSG mice. The settings on record: for AUC(0-inf) / Cmax / Tmax / half-life / Vd/F: NOD-scid IL2Rgamma-null (NSG), mouse, po; for Vd/F: read-out: Vdss/F; for Cl/F: single dose po. The method, then:
For pharmacokinetic studies, NOD-scid IL2Rgamma-null (NSG) mice were obtained from the In Vivo Therapeutics (IVT) Core at the Indiana University School of Medicine and given a single dose of Buparlisib, WNT974, or the combination at pre-established concentrations of 30 mg/kg and 3 mg/kg respectively. This experiment employed 45 NSG mice (n=15 for each group). Plasma was drawn from 3 mice from each group at 0.5, 1, 2, 6, and 24 hours post dosage. Buparlisib and WNT974 were quantified in the plasma using high-performance liquid chromatography-mass spectrometry (HPLC-MS/MS). Pharmacokinetic (PK) parameters for Buparlisib and WNT974 including area under the curve (AUC), area under the moment curve (AUMC), and half-life (t½) were estimated using non-compartmental methods with Excel and WinNonlin v 2.0 (Certara, Princeton, N.J.). The maximum plasma concentration (Cmax) and time of Cmax (tmax) was calculated from the data. The systemic clearance (Cl/F, where F=bioavailability) of each drug was calculated from the dose and AUC0-∝The apparent volume of distribution (Vdss/F) was estimated from the Cl/F and mean residence time. The single-agent pharmacokinetic parameters were compared to the drug combination parameters to determine whether a drug-drug interaction exists.

Data set [2] can be described thus: Quantification of drug in resected tumors (PD study). The format is in vivo, NSG mice. The settings on record: tumors resected 1 hour and 7 hours after last dose, day 7; HPLC-MS/MS.
For the next data set, the system named is Phospho-AKT. Nature of the data set: pAKT western blot on TMD-231 tumors (PD study). The format is in vivo, NSG mice. Conditions: 7 days once-a-day; Buparlisib 30 mg/kg, WNT974 3 mg/kg. The procedure: as §1, with “Japan).” for “Japan). Three TNBC cell lines: MDA-MB-231, HCC70, and HCC1143 were treated with either 0, 1 μM or 10 μM Buparlisib. After 72 hours, protein was isolated and PORCN and pAKT expression was observed.”

Another data set has as its system TMD-231 lung metastases. Nature of the data set: Lung metastases quantification (Ki67), TMD-231 model. The format is in vivo, NSG mice. The settings on record: Ki67 positive pixels in lung sections; Buparlisib 30 mg/kg, WNT974 3 mg/kg. The method, then: For the pharmacodynamic studies, NSG mice were implanted with TMD-231 TNBC cells into the mammary fat pad of 24 NSG mice (6 mice per group: Vehicle, Buparlisib, WNT974, Buparlisib+WNT974). The TMD-231 cell line is a variant of the MDA-MB-231 cell line that metastasizes to the lung. Tumors were allowed to grow for 29 days to an average size of approximately 350 mm^3 prior to dosing. To validate compound-mediated modulation of the PI3K/mTOR and Wnt signaling pathways, mice were dosed once-a-day with vehicle, Buparlisib (30 mg/kg), WNT974 (3 mg/kg), or the combination for 7 days, with intermittent tumor measurements. […] To quantify lung metastases, lungs were extracted, fixed in 10% formalin, and processed in paraffin. Five-micrometer sections were H&E stained, deparaffinized, blocked, and stained using primary anti-human Ki67 antibody (DAKO, Carpinteria, Calif.). The Aperio whole slide digital imaging system was used for imaging (Leica, Wetzlar, Germany). Using the Aperio ScanScope CS, 20× images were taken at scan times ranging from 1.5 to 2.25 minutes. The total nuclear labeling index (Ki67) was generated using the Aperio ImageScope standard positive pixel algorithm. The Image Analysis software was used to calculate the percent of positive pixels (brown staining) in one large cross section from each lung.

In data set [3] the test system is TNBC patient derived xenograft (PDX) (ID: BR0901). The data set is described as follows: TNBC PDX study, survival. The format is in vivo, NSG mice. Conditions: n=10 per group, once-a-day max 28 days; Buparlisib 30 mg/kg, WNT974 3 mg/kg. The procedure: NSG mice were trochar implanted in the right hind flank with a passage 1-4, 5 mm^3 TNBC patient derived xenograft (PDX) (ID: BR0901) at The Jackson Laboratory (The Jackson Laboratory, Bar Harbor, Maine). […] 40 TNBC PDX implanted mice were used (10 mice per group: Vehicle, Buparlisib (30 mg/kg), WNT974 (3 mg/kg), and Buparlisib+WNT974). Tumors were grown to an average of 70-150 mm^3 and mice averaged 22.5 grams body weight. Mice were dosed once-a-day for a maximum of 28 days. Tumor measurements were made two times a week. Mice whose tumors reached a size of 1500 mm^3 were euthanized per IACUC protocol.

The mark [4] stands for this setting: drug given alone, Buparlisib 30 mg/Kg, WNT974 3 mg/Kg.
Setting [5] is: measured drug given in combination with the other, Buparlisib 30 mg/Kg + WNT974 3 mg/Kg.

In the case of `Nc1cc(C(F)(F)F)c(-c2cc(N3CCOCC3)nc(N3CCOCC3)n2)cn1` [Buparlisib, 5-(2,6-di-4-morpholinyl-4-pyrimidinyl)-4-(trifluoromethyl)-2-pyridinamine], the Porcupine protein expression entry with Porcupine (PORCN) is “increase”. In data set [1] (setting [4]), the AUC(0-inf) is 16500 ng·h/mL, the Cmax was found to be 2300 ng/mL, the Tmax is 1 h and the half-life is 3 h. Besides, in data set [1] (setting [4]), the Vd/F was 0.15 L and the Cl/F is 0.034 L/h. In addition, in data set [1] (setting [5]), the AUC(0-inf) stood at 15500 ng·h/mL, the Cmax was 2850 ng/mL, the Tmax was found to be 2 h and the half-life is 2.8 h. In addition, in data set [1] (setting [5]), the Vd/F was 0.16 L and the Cl/F is 0.035 L/h. Further, the “drug concentrations in tumor tissue” value in data set [2] was “reaching the tumor”. Further, the “Inhibition of Phospho-AKT in tumors” value in the data set with Phospho-AKT is listed as “observed”. In the data set with TMD-231 lung metastases, the “lung metastases compared with the control group” value is listed as “small but non-significant decreases”. Besides, in data set [3], the “mice survived to the end of the study” value stood at 40%.
